Source: patent US4156017A, “Pesticides” (Schering Aktiengesellschaft, priority 1977, dated 1979)
Where two headings read alike, the source gives them in different places.

Columns and labels:
cabbage moth eggs = test: prevention of hatching of cabbage moth eggs (immersion, evaluation four days after treatment); assay type: in vivo; details: Mamestra brassicae, 96 h; for inhibition at 0.1 % / inhibition at 1 %: read-out: prevention of hatching
Experimental: (§1) The compounds to be used according to the invention were used as aqueous solutions of the salts or as aqueous emulsions of the bases formulated as emulsion concentrates at the desired concentration. The same procedure was followed with the comparison agents trans-2-phenylcyclopropyl aminosulfate and 1-isonicotinyl-2-isopropyl hydrazine phosphate; in the case of isonicotinic acid-2-[2-(benzylcarbamoyl)-ethyl]-hydrazide, the compound was dissolved in acetone and diluted to the desired concentration with water.
The criterion for the evaluation of action was the percentual prevention of hatching in comparison with untreated eggs.

[1] = system: Egyptian cotton moth eggs; test: prevention of hatching of Egyptian cotton moth eggs (immersion, evaluation four days after treatment); assay type: in vivo, Spodoptera littoratis (Egyptian cotton moth); details: 96 h
Experimental: as §1, with “were” for “were used as”, “or” for “or as”, “baes” for “bases”, “acid-2-[2-(benzylcarbamoyl)-ethyl]hydrazide,” for “acid-2-[2-(benzylcarbamoyl)-ethyl]-hydrazide,”, “diluted with water” for “diluted”, “concentration.” for “concentration with water.”
The criterion for evaluation of the action was the percentual prevention of batching in comparison with untreated eggs.

monoamino-oxidase = details: generally known; cited from earlier work
[2] = system: cabbage moth (Plutella maculipennis); test: feed damage on sprayed potted mustard seedlings bearing eggs of the cabbage moth (Plutella maculipennis); assay type: in vivo; details: vs untreated plants, 7 days
Source text: The compounds to be used according to the invention were used as aqueous solutions of the salts or as aqueous emulsions of the bases formulated as emulsion concentrates at the desired concentration. The same procedure was followed for the comparison agents trans-2-phenylcyclopropyl aminosulfate and 1-isonicotinyl-2-isopropyl hydrazine phosphate.
After the treatment the pots were set up in aerated glass cylinders for seven days.
The criterion for evaluation of the action was feed damage on the treated plants in comparison with the feed damage on untreated plants.

[3] = acute oral toxicity, mouse; details: in vivo, mouse p.o.
[4] = substance concentration 0.1%, vs untreated eggs, 4 days
[5] = substance concentration 0.04 (head "(5)"), vs untreated eggs, 4 days, read-out: prevention of hatching
[6] = substance concentration 1.0%, vs untreated eggs, 4 days
[7] = substance concentration 1.0 (head "(5)"), vs untreated eggs, 4 days, read-out: prevention of hatching
[8] = substance concentration 0.1 (head "(5)"), vs untreated eggs, 4 days, read-out: prevention of hatching
[9] = read-out: prevention of batching

Structure (SMILES): C#CCN(C)Cc1ccccc1Cl [Compound 10, 2-Chlorobenzyl-methyl-2-propinyl-ammonium chloride]
- inhibition at 0.1 % (cabbage moth eggs; [4]): 100%
- inhibition at 0.04 % [1, 5]: 80%

Structure (SMILES): CC(C)NNC(=O)c1ccncc1 [1-isonicotinyl-2-isopropylhydrazine phosphate, reference compound]
- inhibition of monoamino-oxidase (monoamino-oxidase): inhibitors of monoamino-oxidase
- inhibition at 1 % (cabbage moth eggs; [6]): 0%
- feed damage ([2]; substance concentration 0.1%): 100%
- inhibition at 1 % [1, 7]: 0%

Structure (SMILES): C#CCN(C)Cc1ccc(Cl)cc1Cl [Compound 12, 2,4-Dichlorobenzyl-methyl-2-propinyl-ammonium chloride]
- inhibition at 0.1 % [1, 8]: 100%

Structure (SMILES): C#CCN(C)Cc1ccccc1 [Compound 3, N-Benzyl-N-methyl-2-propinylamine]
- inhibition of monoamino-oxidase (monoamino-oxidase): inhibitors of monoamino-oxidase
- inhibition at 0.1 % (cabbage moth eggs): 100%
- LD50 [3]: 700 mg/kg
- feed damage ([2]; substance concentration 0.05%): 0%
- inhibition at 0.04 % [1, 9]: 100%

Structure (SMILES): C#CCN(C)Cc1ccc(Cl)c(Cl)c1 [Compound 14, 3,4-Dichlorobenzyl-methyl-2-propinyl-ammonium chloride]
- inhibition at 0.08 % (cabbage moth eggs; substance concentration 0.08%, vs untreated eggs, 4 days): 100%
- feed damage ([2]; substance concentration 0.05%): 0%

Structure (SMILES): C#CCN(C)Cc1ccccc1 [Compound 9, Benzyl-methyl-2-propinyl-ammonium-chloride]
- inhibition at 0.1 % [1, 9]: 100%

Structure (SMILES): C#CCN(C)Cc1ccc(Cl)c(Cl)c1 [Compound 6, N-(3,4-dichlorobenzyl)-N-methyl-2-propinylamine]
- inhibition at 0.04 % [1, 5]: 100%

Structure (SMILES): C#CCN(C)Cc1ccc(Cl)cc1Cl [Compound 7, N-(2,4-dichlorobenzyl)-N-methyl-2-propinylamine]
- inhibition at 0.1 % (cabbage moth eggs; [4]): 100%
- inhibition at 0.04 % [1, 5]: 100%

Structure (SMILES): C#CCN(C)Cc1ccccc1Cl [Compound 4, N-(2-chlorobenzyl)-N-methyl-2-propinylamine]
- LD50 [3]: 305 mg/kg
- inhibition at 0.1 % [1, 8]: 100%

Structure (SMILES): C#CCN(C)Cc1ccc(Cl)cc1 [Compound 2, 4-Chlorobenzyl-methyl-2-propinyl ammonium chloride]
- inhibition at 0.1 % [1, 8]: 100%

Structure (SMILES): C#CCN(C)Cc1cccc(OC)c1 [Compound 13, 3-Methoxybenzyl-methyl-2-propinyl-ammonium chloride]
- inhibition at 0.04 % [1, 5]: 70%

Structure (SMILES): O=C(CCNNC(=O)c1ccncc1)NCc1ccccc1 [Isonicotinic acid-2-[2-(benzylcarbamoyl)-ethyl]-hydrazide, reference compound]
- inhibition of monoamino-oxidase (monoamino-oxidase): inhibitors of monoamino-oxidase
- inhibition at 1 % (cabbage moth eggs; [6]): 0%
- inhibition at 1 % [1, 7]: 0%

Structure (SMILES): C#CCN(C)Cc1ccc(Cl)cc1 [Compound 1, N-(4-chlorobenzyl)-N-methyl-2-propinylamine]
- inhibition at 0.06 % (cabbage moth eggs; substance concentration 0.06%, vs untreated eggs, 4 days): 100%
- feed damage ([2]; substance concentration 0.05%): 0%
- inhibition at 0.02 % ([1]; substance concentration 0.02 (head "(5)"), vs untreated eggs, 4 days): 100%

Structure (SMILES): C#CCN(C)Cc1cccc(Cl)c1 [Compound 5, N-(3-chlorobenzyl)-N-methyl-2-propinylamine]
- inhibition at 0.1 % [1, 8]: 100%

Structure (SMILES): C#CCN(C)Cc1cccc(OC)c1 [Compound 8, N-(3-methoxybenzyl)-N-methyl-2-propinylamine]
- inhibition at 0.1 % [1, 8]: 100%

Structure (SMILES): N[C@@H]1C[C@H]1c1ccccc1.O=S(=O)(O)O (relative stereo) [trans-2-Phenylcyclopropyl aminosulfate, trans-2-phenylcyclopropylamine sulfate, reference compound]
- inhibition of monoamino-oxidase (monoamino-oxidase): inhibitors of monoamino-oxidase
- inhibition at 1 % (cabbage moth eggs): 0%
- feed damage ([2]; substance concentration 0.1%): 100%
- inhibition at 1 % [1, 9]: 0%
